Experimental data: US10406124B2, “Method of treatment of gynecological cancer with anti-RAGE antibodies” (Swansea University, priority 2014, dated 2019)
Like-named read-outs stand apart in the source and are kept apart here. Non-standard residues stand in square brackets, D forms with d. Residues, ends and D or L forms follow the SMILES beside them. *: point of attachment. Dolaproine = CO[C@@H]([C@@H]1CCCN1)[C@@H](C)C(=O)O; Dil = CC[C@H](C)[C@H](NC)[C@@H](CC(=O)O)OC; X1 = C[C@@H](N*)[C@@H](O)c1ccccc1; NMeV = CN[C@H](C(=O)O)C(C)C

What was measured:
[1] = system: Ishikawa cells; assay: Cell viability / cytotoxicity of RAGE ADCs in Ishikawa endometrial cancer cells; format: cell-based; settings: Homo sapiens, read-out: IC50 of drug alone
Description: (§1) Endometrial (Ishikawa) or ovarian (TOV112D) cancer cells were cultured in 96-well plates and treated with an extended concentration range of MMAE, MMAF, RAGE MMAE or RAGE MMAF for 24 or 48 h. Data was analysed by non-linear regression and IC50 concentrations determined for each treatment.
After treatment, cell viability in both cell lines (FIG. 13), and cell apoptosis in Ishikawa cells (caspase activation; FIG. 14) were determined by a fluorescence-based cell viability assay (Apotox Glo Triplex assay, Promega) according to the manufacturer's instructions. Data are presented as box plots showing the median (line), 25th and 75th percentiles (box) and 10th and 90th percentile (whiskers), n=4. Data were analysed by ANOVA and Dunnett's pairwise multiple comparison t-test. […]

[2] = system: TOV112D cells; assay: Cell viability / cytotoxicity of RAGE ADCs in TOV112D ovarian cancer cells; format: cell-based, human; settings: 24 h, free cytotoxin
Description: as §1
Data are presented as box plots showing the median (line), 25th and 75th percentiles (box) and 10th and 90th percentile (whiskers), n=4. Data were analysed by ANOVA and Dunnett's pairwise multiple comparison t-test.
The linkers used in Examples 3 & 4 were directly compared. […] After treatment, cell viability (FIG. 17) was determined by a fluorescence-based cell viability assay (Apotox Glo Triplex assay, Promega) according to the manufacturer's instructions. […] Data were analysed by ANOVA and Dunnett's pairwise multiple comparison t-test. […]
Comparisons of the AA4, HG6 and DF6 ADCs to the SNIPER ADC were made within normal ovarian (HOSEpic) and ovarian cancer (TOV112D and SKOV3) cells, and normal endometrial (Healthy) and endometrial cancer (HEC1A, HEC1B and Ishikawa) cells. Cells were treated for 96 h with 5 μg/ml of each of the ADCs, and cell health monitored as previously described. […] Data are presented as mean (SEM), and were analysed by ANOVA and Dunnett's pairwise multiple comparison t-test.

[3] = system: RAGE; assay: RAGE protein expression by immunohistochemistry in endometrial biopsies of patients taking tamoxifen; format: in vivo, human
Description: RAGE protein expression was measured by Immunohistochemistry in endometrial biopsies from patients diagnosed with endometrial hyperplasia, Type I or Type II endometrial cancer (EC), postmenopausal controls as well as breast cancer patients taking tamoxifen as part of their treatment that have developed, or not, endometrial cancer. 138 patients were grouped as follows: PM (n=25, median=0.2), Hyperplasia (n=21, median=5.5), type I EC (n=18, median=1.5), type II EC (n=17, median=2), TX no EC (n=19, median=4), type I EC plus TX (n=21, median=4) and type II EC plus TX (n=17, median=0.2).
IHC samples were scored blind by three independent observers. Values shown are median IHC scores and statistical analysis was performed using a Mann-Whitney test *p<0.05, **p<0.01, ***p<0.001, compared to PM control.

Structure (SMILES)	IC50 ([1]; 24 h) [nM]	IC50 ([1]; 48 h) [nM]	IC50 of drug alone [2]	RAGE expression, median IHC score ([3]; breast cancer patients taking tamoxifen, no endometrial cancer (TX no EC), n=19)	effect on endometrial RAGE expression ([3]; endometrium from EC patients taking vs not taking tamoxifen)	RAGE expression, median IHC score ([3]; type I EC plus TX, n=21)	RAGE expression, median IHC score ([3]; type II EC plus TX, n=17)
CC[C@H](C)[C@@H]([C@@H](CC(=O)N1CCC[C@H]1[C@H](OC)[C@@H](C)C(=O)N[C@H](C)[C@@H](O)c1ccccc1)OC)N(C)C(=O)[C@@H](NC(=O)[C@@H](NC)C(C)C)C(C)C [MMAE, (S)—N-((3R,4S,5S)-1-((S)-2-((1R,2R)-3-(((1S,2R)-1-hydroxy-1-phenylpropan-2-yl)amino)-1-methoxy-2-methyl-3-oxopropyl)pyrrolidin-1-yl)-3-methoxy-5-methyl-1-oxoheptan-4-yl)-N,3-dimethyl-2-((S)-3-methyl-2-(methylamino)butanamido)butanamide] (H-[NMeV]V[Dil][Dolaproine]-X1)	1400	460	greater than the top concentration tested	–	–	–	–
CC[C@H](C)[C@@H]([C@@H](CC(=O)N1CCC[C@H]1[C@H](OC)[C@@H](C)C(=O)N[C@@H](Cc1ccccc1)C(=O)O)OC)N(C)C(=O)[C@@H](NC(=O)[C@@H](NC)C(C)C)C(C)C [MMAF, (S)-2-((2R,3R)-3-((S)-1-((3R,4S,5S)-4-((S)—N,3-dimethyl-2-((S)-3-methyl-2-(methylamino)butanamido)butanamido)-3-methoxy-5-methylheptanoyl)pyrrolidin-2-yl)-3-methoxy-2-methylpropanamido)-3-phenylpropanoic acid] (H-[NMeV]V[Dil][Dolaproine]F-OH)	1300	630	greater than the top concentration tested	–	–	–	–
CC/C(=C(\c1ccccc1)c1ccc(OCCN(C)C)cc1)c1ccccc1 [tamoxifen]	–	–	–	4	upregulation of RAGE	4	0.2
